# Patent US8039486B2, “Indole, azaindole and related heterocyclic N-substituted piperazine derivatives” (priority 2003, dated 2011)
# Test system: HIV-1 single-round infectious reporter virus
# Experiment: Single-round infectious HIV-1 luciferase reporter virus infection of HeLa CD4 cells
# Format: cell-based
# Settings: Human immunodeficiency virus 1, HeLa, 72 h, read-out: EC50 Group from Table 1
# Protocol: • Virus production—Human embryonic Kidney cell line, 293, was propagated in Dulbecco's Modified Eagle Medium (Invitrogen, Carlsbad, Calif.) containing 10% fetal Bovine serum (FBS, Sigma, St. Louis, Mo.). • Virus infection—Human epithelial cell line, HeLa, expressing the HIV-1 receptor CD4 was propagated in Dulbecco's Modified Eagle Medium (Invitrogen, Carlsbad, Calif.) containing 10% fetal Bovine serum (FBS, Sigma, St. Louis, Mo.) and supplemented with 0.2 mg/mL Geneticin (Invitrogen, Carlsbad, Calif.). Virus-Single-round infectious reporter virus was produced by co-transfecting human embryonic Kidney 293 cells with an HIV-1 envelope DNA expression vector and a proviral cDNA containing an envelope deletion mutation and the luciferase reporter gene inserted in place of HIV-1 nef sequences (Chen et al, Ref 41). Transfections were performed using lipofectAMINE PLUS reagent as described by the manufacturer (Invitrogen, Carlsbad, Calif.). Experiment • 1. HeLa CD4 cells were plated in 96 well plates at a cell density of 1×10^4 cells per well in 100 μl Dulbecco's Modified Eagle Medium containing 10% fetal Bovine serum and incubated overnight. • 2. Compound was added in a 2 μl dimethylsulfoxide solution, so that the final assay concentration would be ≦10 μM. • 3. 100 μl of single-round infectious reporter virus in Dulbecco's Modified Eagle Medium was then added to the plated cells and compound at an approximate multiplicity of infection (MOI) of 0.01, resulting in a final volume of 200 μl per well. • 4. Virally-infected cells were incubated at 37 degrees Celsius, in a CO2 incubator, and harvested 72 h after infection. • 5. Viral infection was monitored by measuring luciferase expression from viral DNA in the infected cells using a luciferase reporter gene assay kit, as described by the manufacturer (Roche Molecular Biochemicals, Indianapolis, Ind.). Infected cell supernatants were removed and 50 μl of lysis buffer was added per well. After 15 minutes, 50 μl of freshly-reconstituted luciferase assay reagent was added per well. Luciferase activity was then quantified by measuring luminescence using a Wallac microbeta scintillation counter. • 6. The percent inhibition for each compound was calculated by quantifying the level of luciferase expression in cells infected in the presence of each compound as a percentage of that observed for cells infected in the absence of compound and subtracting such a determined value from 100. • 7. An EC50 provides a method for comparing the antiviral potency of the compounds of this invention. The effective concentration for fifty percent inhibition (EC50) was calculated with the Microsoft Excel Xlfit curve fitting software. For each compound, curves were generated from percent inhibition calculated at 10 different concentrations by using a four paramenter logistic model (model 205). Table 1 is the key for the data in Table 2. Results
row,Structure (SMILES),EC50 [µM]
1,O=C(C(=O)N1CCN(c2nccc3ccccc23)CC1)c1c[nH]c2c(-c3ncon3)ccc(F)c12 [Example 1],< 1
2,O=C(C(=O)N1CCN(c2nccc3ccoc23)CC1)c1c[nH]c2c(-c3ncon3)ccc(F)c12 [Example 2],< 1
3,O=C(C(=O)N1CCN(c2ncnc3ccccc23)CC1)c1c[nH]c2c(-c3ncon3)ccc(F)c12 [Example 3],< 1
4,COc1ccc(Br)c2[nH]cc(C(=O)C(=O)N3CCN(c4nccc5ccccc45)CC3)c12 [Example 4],< 1
5,COc1ccc(-n2ccnc2)c2[nH]cc(C(=O)C(=O)N3CCN(c4nccc5ccccc45)CC3)c12 [Example 5],< 1
6,COc1ccc(-n2cccc2)c2[nH]cc(C(=O)C(=O)N3CCN(c4nccc5ccccc45)CC3)c12 [Example 6],< 1
7,COc1cnc(C#N)c2[nH]cc(C(=O)C(=O)N3CCN(c4nccc5ccccc45)CC3)c12 [Example 7],< 1
8,COc1ncc(OC)c2c(C(=O)C(=O)N3CCN(c4ncnc5ccccc45)CC3)c[nH]c12 [Example 9],< 1
9,COc1ccc(-c2nc(C)n[nH]2)c2[nH]cc(C(=O)C(=O)N3CCN(c4nccc5ccccc45)CC3)c12 [Example 11],< 1
10,COc1ccc(C(N)=O)c2[nH]cc(C(=O)C(=O)N3CCN(c4nccc5ccccc45)CC3)c12 [Example 12],< 1
11,CCOC(=O)c1ccc(OC)c2c(C(=O)C(=O)N3CCN(c4nccc5ccccc45)CC3)c[nH]c12 [Example 13],< 1
12,COc1ccc(/C(N)=N\O)c2[nH]cc(C(=O)C(=O)N3CCN(c4nccc5ccccc45)CC3)c12 [Example 14],< 1
13,COc1ccc(-c2nn[nH]n2)c2[nH]cc(C(=O)C(=O)N3CCN(c4nccc5ccccc45)CC3)c12 [Example 15],< 1
14,COc1ccc(-c2nnn(C)n2)c2[nH]cc(C(=O)C(=O)N3CCN(c4nccc5ccccc45)CC3)c12 [Example 16],< 1
15,COc1ccc(-c2ncon2)c2[nH]cc(C(=O)C(=O)N3CCN(c4nccc5ccccc45)CC3)c12 [Example 17],< 1
16,COc1ccc(C(=N)NC2CC2)c2[nH]cc(C(=O)C(=O)N3CCN(c4nccc5ccccc45)CC3)c12 [Example 18],< 1
17,COc1ccc(-c2nc3ccccc3[nH]2)c2[nH]cc(C(=O)C(=O)N3CCN(c4nccc5ccccc45)CC3)c12 [Example 19],< 1
18,COc1ccc(-c2noc(C)n2)c2[nH]cc(C(=O)C(=O)N3CCN(c4nccc5ccccc45)CC3)c12 [Example 20],< 1
19,COc1ccc(-c2ncn[nH]2)c2[nH]cc(C(=O)C(=O)N3CCN(c4nccc5ccccc45)CC3)c12 [Example 21],< 1
20,COc1ccc(-c2nc(-c3cccnc3)n[nH]2)c2[nH]cc(C(=O)C(=O)N3CCN(c4nccc5ccccc45)CC3)c12 [Example 22],< 1

row,Structure (SMILES),EC50 [µM]
1,COc1ccc(C(=N)NNC(=O)c2cccnc2)c2[nH]cc(C(=O)C(=O)N3CCN(c4nccc5ccccc45)CC3)c12 [Example 23],< 1
2,COc1ccc(-c2nc(CC#N)n[nH]2)c2[nH]cc(C(=O)C(=O)N3CCN(c4nccc5ccccc45)CC3)c12 [Example 24],< 1
3,COc1ccc(C(=N)NNC(=O)CC#N)c2[nH]cc(C(=O)C(=O)N3CCN(c4nccc5ccccc45)CC3)c12 [Example 25],< 1
4,COC(=O)Cn1nnc(-c2ccc(OC)c3c(C(=O)C(=O)N4CCN(c5nccc6ccccc56)CC4)c[nH]c23)n1 [Example 26],< 1
5,COc1ccc(-c2nnn(CC(=O)O)n2)c2[nH]cc(C(=O)C(=O)N3CCN(c4nccc5ccccc45)CC3)c12 [Example 27],< 1
6,CNC(=O)Cn1nnc(-c2ccc(OC)c3c(C(=O)C(=O)N4CCN(c5nccc6ccccc56)CC4)c[nH]c23)n1 [Example 28],< 1
7,COc1ccc(-c2nnn(CC(N)=O)n2)c2[nH]cc(C(=O)C(=O)N3CCN(c4nccc5ccccc45)CC3)c12 [Example 29],< 1
8,COc1ccc(-c2cnccn2)c2[nH]cc(C(=O)C(=O)N3CCN(c4nccc5ccccc45)CC3)c12 [Example 30],< 1
9,COc1ccc(-n2cncn2)c2[nH]cc(C(=O)C(=O)N3CCN(c4nccc5ccccc45)CC3)c12 [Example 31],< 1
10,COC(=O)Cc1n[nH]c(-c2ccc(OC)c3c(C(=O)C(=O)N4CCN(c5nccc6ccccc56)CC4)c[nH]c23)n1 [Example 32],< 1
11,COc1ccc(-c2nc(CC(=O)O)n[nH]2)c2[nH]cc(C(=O)C(=O)N3CCN(c4nccc5ccccc45)CC3)c12 [Example 33],< 1
12,CNC(=O)Cc1n[nH]c(-c2ccc(OC)c3c(C(=O)C(=O)N4CCN(c5nccc6ccccc56)CC4)c[nH]c23)n1 [Example 34],< 1
13,COc1ccc(-c2nc(CC(N)=O)n[nH]2)c2[nH]cc(C(=O)C(=O)N3CCN(c4nccc5ccccc45)CC3)c12 [Example 35],< 1
14,COc1cnc(-n2cncn2)c2[nH]cc(C(=O)C(=O)N3CCN(c4nccc5ccccc45)CC3)c12 [Example 36],< 1
15,O=C(C(=O)N1CCN(c2nccc3ccccc23)CC1)c1c[nH]c2c(Cl)ccnc12 [Example 37],< 1
16,O=C(C(=O)N1CCN(c2nccc3ccccc23)CC1)c1c[nH]c2c(-c3nccs3)ccnc12 [Example 38],< 1
17,COc1cnc(-n2cnc(C)n2)c2[nH]cc(C(=O)C(=O)N3CCN(c4ccnc5ccccc45)CC3)c12 [Example 39],< 1
18,Cc1cc(N2CCN(C(=O)C(=O)c3c[nH]c4c(-c5ncon5)ccc(F)c34)CC2)c2ccccc2n1 [Example 40],< 1
19,COc1ccc(C#N)c2[nH]cc(C(=O)C(=O)N3CCN(c4nccc5ccccc45)CC3)c12 [Example 43],< 1
20,COc1ccc(C#N)c2[nH]cc(C(=O)C(=O)N3CCN(c4ncnc5ccccc45)CC3)c12 [Example 44],< 1

row,Structure (SMILES),EC50 [µM]
1,COc1cnc(C#N)c2[nH]cc(C(=O)C(=O)N3CCN(c4ncnc5ccccc45)CC3)c12 [Example 45],< 1
2,COc1cnc(-n2cnc(C)n2)c2[nH]cc(C(=O)C(=O)N3CCN(c4ncnc5ccccc45)CC3)c12 [Example 46],< 1
3,COc1cnc(-n2cncn2)c2[nH]cc(C(=O)C(=O)N3CCN(c4ncnc5ccccc45)CC3)c12 [Example 47],< 1
4,O=C(C(=O)N1CCN(c2ncnc3ccccc23)CC1)c1c[nH]c2c(-n3ccnn3)ncc(F)c12 [Example 48],< 1
5,COc1cnc(C(N)=O)c2[nH]cc(C(=O)C(=O)N3CCN(c4ncnc5ccccc45)CC3)c12 [Example 49],< 1
6,COc1cnc(C(=O)O)c2[nH]cc(C(=O)C(=O)N3CCN(c4ncnc5ccccc45)CC3)c12 [Example 50],< 1
7,COc1cnc(-n2nccn2)c2[nH]cc(C(=O)C(=O)N3CCN(c4ncnc5ccccc45)CC3)c12 [Example 51],< 1
8,COc1cnc(-n2ccnn2)c2[nH]cc(C(=O)C(=O)N3CCN(c4ncnc5ccccc45)CC3)c12 [Example 52],< 1
9,COc1cnc(Br)c2[nH]cc(C(=O)C(=O)N3CCN(c4ncnc5ccccc45)CC3)c12 [Example 53],< 1
10,COc1cnc(-n2ccnn2)c2[nH]cc(C(=O)C(=O)N3CCN(c4nncc5ccccc45)CC3)c12 [Example 54],< 1
11,COc1cnc(-n2cnc(C)n2)c2[nH]cc(C(=O)C(=O)N3CCN(c4nncc5ccccc45)CC3)c12 [Example 55],< 1
12,O=C(C(=O)N1CCN(c2nncc3ccccc23)CC1)c1c[nH]c2c(-n3ccnn3)ncc(F)c12 [Example 56],< 1
13,COc1nnc(N2CCN(C(=O)C(=O)c3c[nH]c4c(-n5cnc(C)n5)ncc(OC)c34)CC2)c2ccccc12 [Example 57],< 1
14,COc1cnc(-n2cnc(C)n2)c2[nH]cc(C(=O)C(=O)N3CCN(c4nnc(O)c5ccccc45)CC3)c12 [Example 58],< 1
15,Cc1nc(N2CCN(C(=O)C(=O)c3c[nH]c4c(-n5ccnn5)ncc(F)c34)CC2)c2ccccc2n1 [Example 59],< 1
16,COc1cnc(-n2cnc(C)n2)c2[nH]cc(C(=O)C(=O)N3CCN(c4nc(C)nc5ccccc45)CC3)c12 [Example 60],< 1
17,COc1cnc(-n2ccnn2)c2[nH]cc(C(=O)C(=O)N3CCN(c4nc(C)nc5ccccc45)CC3)c12 [Example 61],< 1
18,COc1cnc(Br)c2[nH]cc(C(=O)C(=O)N3CCN(c4nncc5ccccc45)CC3)c12 [Example 62],< 1
19,COc1cnc(C(N)=O)c2[nH]cc(C(=O)C(=O)N3CCN(c4nncc5ccccc45)CC3)c12 [Example 64],< 1
